In article PMC12684391, “Mechanistic insights into the monotherapy and combination potential of FEN1 inhibition in cancer therapy” (Nucleic Acids Research, 2025):

Experiments:
Assay type in all cases: cell-based
HAP1 USP1KO cells = assay: Cell viability assay (CTG), 7 days; conditions: two independent USP1KO lines
Description: Cells were seeded in 150 μl of media in 96-well plates or in 70 μl of media in 384-well plates pre-dosed with compounds (8–10 points dose response) with a D300e digital dispenser (Tecan) and incubated for 24 h at 37°C and 5% CO2. Cell proliferation at the end of the assay (7 days) was measured using CTG (Promega, G9243). CTG luminescence was normalized to vehicle treated control for each cell line, and data were fitted with a nonlinear regression curve (four parameters) to generate compound sensitivity curves and determine IC50 or EC50 (half maximal inhibitory/effective concentration) values as indicated.

[1] = system: DLD-1, DLD-1 BRCA2KO, SUM149PT, MDA-MB-436 cells; assay: Flow cytometric analysis of apoptosis (annexin V/PI); conditions: 1 μM, 72 h
Description: (§1) Apoptosis was measured using annexin V and propidium iodide (PI) staining using an Annexin V-fluorescein isothiocyanate (FITC) apoptosis detection kit (Thermo Fisher Scientific, V13242) according to manufacturer’s instructions.
(§2) Briefly, cells were cultured in six-well plates and treated with FEN1 inhibitor at indicated concentrations for 72 h. The supernatant and adherent cells were collected and washed twice with ice-cold PBS, then re-suspended in 100 µl of 1× binding buffer. Annexin V-FITC conjugate (5 µl) and PI (1 µl) were added, and the cells were incubated at room temperature for 15 min in the dark. After addition of 300 µl of 1× binding buffer, the cells were analyzed using a flow cytometer (CytoFLEX, Beckman).

U-2 OS cells = assay: as above; conditions: 0.1 μM, 72 h
Description: as §1, §2

[2] = system: EWS cells (MHH-ES-1, RD-ES); assay: as above; conditions: 0.1 μM, 72 h
Description: as §1, §2

## C[C@H](Oc1nn2c(c(O)c1=O)C(=O)N1CCOC[C@@H]1C2)c1ccc2ccc(Cl)cc2c1 [MSC778]
HAP1 USP1KO cells
  Sensitization of USP1KO cell lines compared to isogenic HAP1 WT cells: 3 fold
[1]
  Induction of cell death: induced cell death by apoptosis
U-2 OS cells
  Induction of apoptotic cell death: not
[2]
  Induction of cell death: induced apoptotic cell death
